Measurements: patent US11612606B2, “8-aminoisoquinoline compounds and uses thereof” (priority 2018, dated 2023)
Structures can show the parent of a compound that is named as a salt.

Target: HPK full length, T165E S171E (Homo sapiens (Human), UniProt Q92918, S171E/T165E)
Assay: HPK1-FL HTRF enzymatic assay ("HTRF")
Format: biochemical
Settings: ATP 1 mM, read-out: HPK1 Ki
Outline: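 Full-length HPK1 (T165E/S171E) was preincubated 30 min with compound, then reacted 60 min with biotin-SLP-76 and 1 mM ATP. Phospho-SLP-76 was detected by HTRF (Eu-anti-pSLP76 antibody, SA-XL665) after a further 60 min.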

Sequence of HPK full length, T165E S171E (Q92918 whole entry T165E/S171E, looked up): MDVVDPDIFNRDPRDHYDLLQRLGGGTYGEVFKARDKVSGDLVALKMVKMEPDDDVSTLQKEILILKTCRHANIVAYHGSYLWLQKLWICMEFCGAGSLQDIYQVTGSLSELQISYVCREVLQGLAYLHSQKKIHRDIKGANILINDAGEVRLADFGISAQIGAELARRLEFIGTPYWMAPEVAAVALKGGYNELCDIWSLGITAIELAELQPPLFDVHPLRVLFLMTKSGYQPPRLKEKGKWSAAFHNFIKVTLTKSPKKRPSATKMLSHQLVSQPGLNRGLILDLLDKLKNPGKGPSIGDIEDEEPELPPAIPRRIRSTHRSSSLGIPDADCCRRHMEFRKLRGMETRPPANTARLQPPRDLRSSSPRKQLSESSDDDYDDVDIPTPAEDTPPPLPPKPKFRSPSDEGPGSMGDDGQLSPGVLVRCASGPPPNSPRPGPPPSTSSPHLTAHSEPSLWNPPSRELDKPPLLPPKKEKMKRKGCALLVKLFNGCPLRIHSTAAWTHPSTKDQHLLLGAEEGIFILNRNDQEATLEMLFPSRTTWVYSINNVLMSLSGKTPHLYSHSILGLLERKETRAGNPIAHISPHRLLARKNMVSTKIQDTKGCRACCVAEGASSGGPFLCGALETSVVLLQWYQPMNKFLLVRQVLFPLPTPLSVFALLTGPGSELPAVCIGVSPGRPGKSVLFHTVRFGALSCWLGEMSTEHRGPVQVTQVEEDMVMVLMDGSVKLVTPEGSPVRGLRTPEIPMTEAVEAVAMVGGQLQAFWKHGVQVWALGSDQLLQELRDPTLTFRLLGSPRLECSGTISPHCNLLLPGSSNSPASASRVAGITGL

Row | Structure (SMILES) | Ki [nM]
1 | CO[C@]1(C)C[C@H](OC(=O)Nc2cc3cc(-c4cnc5c(c4C)NCCO5)c(F)c(N)c3cn2)C1 [Compound 528a, (1s,3s)-3-Methoxy-3-methyl cyclobutyl (8-amino-7-fluoro-6-(8-methyl-2,3-dihydro-1H-pyrido[2,3-b][1,4]oxazin-7-yl)isoquinolin-3-yl)carbamate] | < 0.013
2 | CC(=O)O[C@]1(C)C[C@H](OC(=O)Nc2cc3cc(-c4cnc5c(c4C)NCCO5)c(F)c(N)c3cn2)C1 [Compound 529b, (1s,3s)-3-(((8-Amino-7-fluoro-6-(8-methyl-2,3-dihydro-1H-pyrido[2,3-b][1,4]oxazin-7-yl)isoquinolin-3-yl)carbamoyl)oxy)-1-methylcyclobutyl acetate] | 0.019
3 | Cc1c(-c2cc3cc(NC(=O)OC4CC5(C4)CN(CC(F)F)C5)ncc3c(N)c2F)cnc2c1NCCC2 [Compound 532, 2-(2,2-Difluoroethyl)-2-azaspiro[3.3]heptan-6-yl (8-amino-7-fluoro-6-(4-methyl-5,6,7,8-tetrahydro-1,5-naphthyridin-3-yl)isoquinolin-3-yl)carbamate] | 0.014
4 | Cc1c(N)cncc1-c1cc2cc(NC(=O)O[C@H]3C[C@@H](C#N)C3)ncc2c(N)c1F [Compound 534a, (1s,3s)-3-Cyanocyclobutyl (8-amino-6-(5-amino-4-methylpyridin-3-yl)-7-fluoroisoquinolin-3-yl)carbamate] | 0.14
5 | Cc1c(-c2cc3cc(NC(=O)O[C@@H]4CC[C@H]4C#N)ncc3c(N)c2F)cnc2c1NCCO2 [Compound 535b, (1R,2S)-2-Cyanocyclobutyl (8-amino-7-fluoro-6-(8-methyl-2,3-dihydro-1H-pyrido[2,3-b][1,4]oxazin-7-yl)isoquinolin-3-yl)carbamate] | 0.029
6 | Cc1c(-c2cc3cc(NC(=O)O[C@H]4C[C@@H](CC#N)C4)ncc3c(N)c2F)cnc2c1NCCO2 [Compound 536a, (1r,3s)-3-(Cyanomethyl)cyclobutyl (8-amino-7-fluoro-6-(8-methyl-2,3-dihydro-1H-pyrido[2,3-b][1,4]oxazin-7-yl)isoquinolin-3-yl)carbamate] | < 0.013
7 | Cc1c(-c2cc3cc(NC(=O)O[C@H]4C[C@@](C)(C#N)C4)ncc3c(N)c2F)cnc2c1NCCO2 [Compound 537a, (1s,3s)-3-Cyano-3-methylcyclobutyl (8-amino-7-fluoro-6-(8-methyl-2,3-dihydro-1H-pyrido[2,3-b][1,4]oxazin-7-yl)isoquinolin-3-yl)carbamate] | 0.015
8 | Cc1c(-c2cc3cc(NC(=O)O[C@H]4C[C@](C)(C#N)C4)ncc3c(N)c2F)cnc2c1NCCO2 [Compound 537b, (1r,3r)-3-Cyano-3-methylcyclobutyl (8-amino-7-fluoro-6-(8-methyl-2,3-dihydro-1H-pyrido[2,3-b][1,4]oxazin-7-yl)isoquinolin-3-yl)carbamate] | < 0.013
9 | CN[C@H]1C[C@H](OC(=O)Nc2cc3cc(-c4cnc5c(c4C)NCCO5)c(F)c(N)c3cn2)C1 [Compound 539a, (1r,3r)-3-(Methylamino)cyclobutyl (8-amino-7-fluoro-6-(8-methyl-2,3-dihydro-1H-pyrido[2,3-b][1,4]oxazin-7-yl)isoquinolin-3-yl)carbamate] | < 0.013
10 | Cc1c(-c2cc3cc(NC(=O)OC4CN(C5CC5)C4)ncc3c(N)c2F)cnc2c1NCCO2 [Compound 540, 1-Cyclopropylazetidin-3-yl (8-amino-7-fluoro-6-(8-methyl-2,3-dihydro-1H-pyrido[2,3-b][1,4]oxazin-7-yl)isoquinolin-3-yl)carbamate] | 0.021
11 | Cc1c(-c2cc3cc(NC(=O)O[C@H]4C[C@@H](F)C4)ncc3c(N)c2F)cnc2c1NCCO2 [Compound 541a, (1s,3s)-3-Fluorocyclobutyl (8-amino-7-fluoro-6-(8-methyl-2,3-dihydro-1H-pyrido[2,3-b][1,4]oxazin-7-yl)isoquinolin-3-yl)carbamate hydrochloride] | 0.014
12 | Cc1c(-c2cc3cc(NC(=O)O[C@@H]4CC[C@@H]4O)ncc3c(N)c2F)cnc2c1NCCO2 [Compound 542b, (1R,2S)-2-Hydroxycyclobutyl (8-amino-7-fluoro-6-(8-methyl-2,3-dihydro-1H-pyrido[2,3-b][1,4]oxazin-7-yl)isoquinolin-3-yl)carbamate] | 0.078
13 | Cc1c(-c2cc3cc(NC(=O)O[C@H]4[C@@H]5COC[C@@H]54)ncc3c(N)c2F)cnc2c1NCCO2 [Compound 543a, (1R,5S,6s)-3-oxabicyclo[3.1.0]hexan-6-yl (8-amino-7-fluoro-6-(8-methyl-2,3-dihydro-1H-pyrido[2,3-b][1,4]oxazin-7-yl)isoquinolin-3-yl)carbamate] | < 0.013
14 | Cc1c(-c2cc3cc(NC(=O)O[C@@H]4[C@@H]5COC[C@@H]54)ncc3c(N)c2F)cnc2c1NCCO2 [Compound 543b, (1R,5S,6r)-3-oxabicyclo[3.1.0]hexan-6-yl (8-amino-7-fluoro-6-(8-methyl-2,3-dihydro-1H-pyrido[2,3-b][1,4]oxazin-7-yl)isoquinolin-3-yl)carbamate] | 0.083
15 | Cc1c(-c2cc3cc(NC(=O)O[C@@H]4CCOC4)ncc3c(N)c2F)cnc2c1[C@H](O)CC2 [Compound 548b, (R)-tetrahydrofuran-3-yl (8-amino-7-fluoro-6-((R)-5-hydroxy-4-methyl-6,7-dihydro-5H-cyclopenta[b]pyridin-3-yl)isoquinolin-3-yl)carbamate] | 93
16 | Cc1c(-c2cc3cc(NC(=O)O[C@H]4C[C@@H](C(C)(C)C#N)C4)ncc3c(N)c2F)cnc2c1NCCO2 [Compound 549a, (1s,3s)-3-(2-Cyanopropan-2-yl)cyclobutyl (8-amino-7-fluoro-6-(8-methyl-2,3-dihydro-1H-pyrido[2,3-b][1,4]oxazin-7-yl)isoquinolin-3-yl)carbamate] | < 0.013
17 | Cc1c(-c2cc3cc(NC(=O)O[C@H]4C[C@H](C(C)(C)C#N)C4)ncc3c(N)c2F)cnc2c1NCCO2 [Compound 549b, (1r,3r)-3-(2-Cyanopropan-2-yl)cyclobutyl (8-amino-7-fluoro-6-(8-methyl-2,3-dihydro-1H-pyrido[2,3-b][1,4]oxazin-7-yl)isoquinolin-3-yl)carbamate] | < 0.013
18 | Cc1c(-c2cc3cc(NC(=O)OC4CC(O)(C5CC5)C4)ncc3c(N)c2F)cnc2c1NCCO2 (stereo not shown) [Compound 551a, (3-Cyclopropyl-3-hydroxy-cyclobutyl) N-[8-amino-7-fluoro-6-(8-methyl-2,3-dihydro-1H-pyrido[2,3-b][1,4]oxazin-7-yl)-3-isoquinolyl]carbamate] | < 0.013
19 | Cc1c(-c2cc3cc(NC(=O)OC4CN(S(C)(=O)=O)C4)ncc3c(N)c2F)cnc2c1NCCO2 [Compound 552, 1-(Methylsulfonyl)azetidin-3-yl (8-amino-7-fluoro-6-(8-methyl-2,3-dihydro-1H-pyrido[2,3-b][1,4]oxazin-7-yl)isoquinolin-3-yl)carbamate] | 0.014
20 | Cc1c(-c2cc3cc(NC(=O)O[C@H]4C[C@@H](O)C4)ncc3c(N)c2F)cnc2c1NCCC2 [Compound 553a, (1s,3s)-3-hydroxycyclobutyl (8-amino-7-fluoro-6-(4-methyl-5,6,7,8-tetrahydro-1,5-naphthyridin-3-yl)isoquinolin-3-yl)carbamate] | < 0.013
21 | Cc1c(-c2cc3cc(NC(=O)O[C@]4(C)C[C@H](O)C4)ncc3c(N)c2F)cnc2c1NCCO2 [Compound 554a, (1s,3s)-3-Hydroxy-1-methylcyclobutyl (8-amino-7-fluoro-6-(8-methyl-2,3-dihydro-1H-pyrido[2,3-b][1,4]oxazin-7-yl)isoquinolin-3-yl)carbamate] | 0.253
22 | Cc1c(-c2cc(N)c3cnc(NC(=O)O[C@H]4C[C@@H](C#N)C4)cc3c2)cnc2c1NCCO2 [Compound 557a, (1s,3s)-3-Cyanocyclobutyl (8-amino-6-(8-methyl-2,3-dihydro-1H-pyrido[2,3-b][1,4]oxazin-7-yl)isoquinolin-3-yl)carbamate hydrochloride] | < 0.013
23 | Cc1c(-c2cc3cc(NC(=O)O[C@H]4CC[C@@H]4C)ncc3c(N)c2F)cnc2c1NCCO2 [Compound 559b, [(1S,2S)-2-methylcyclobutyl]N-[8-amino-7-fluoro-6-(8-methyl-2,3-dihydro-1H-pyrido[2,3-b][1,4]oxazin-7-yl)-3-isoquinolyl]carbamate] | 0.14

Same assay, conditions: HPK1 Ki, ATP 1 mM

Row | Structure (SMILES) | Ki [nM]
24 | Cc1c(-c2cc3cc(NC(=O)O[C@H]4CC[C@H]4O)ncc3c(N)c2F)cnc2c1NCCO2 [Compound 542a, (1S,2R)-2-Hydroxycyclobutyl (8-amino-7-fluoro-6-(8-methyl-2,3-dihydro-1H-pyrido[2,3-b][1,4]oxazin-7-yl)isoquinolin-3-yl)carbamate] | 0.33
25 | Cc1c(-c2cc3cc(NC(=O)O[C@H]4CC[C@@H]4O)ncc3c(N)c2F)cnc2c1NCCO2 [Compound 542c, (1S,2S)-2-Hydroxycyclobutyl (8-amino-7-fluoro-6-(8-methyl-2,3-dihydro-1H-pyrido[2,3-b][1,4]oxazin-7-yl)isoquinolin-3-yl)carbamate hydrochloride] | 0.021
26 | Cc1c(-c2cc3cc(NC(=O)O[C@@H]4CC[C@H]4O)ncc3c(N)c2F)cnc2c1NCCO2 [Compound 542d, (1R,2R)-2-Hydroxycyclobutyl (8-amino-7-fluoro-6-(8-methyl-2,3-dihydro-1H-pyrido[2,3-b][1,4]oxazin-7-yl)isoquinolin-3-yl)carbamate hydrochloride] | 0.014
27 | Cc1c(-c2cc3cc(NC(=O)O[C@@H]4CCOC4)ncc3c(N)c2F)cnc2c1[C@@H](O)CC2 [Compound 548a, (R)-tetrahydrofuran-3-yl (8-amino-7-fluoro-6-((S)-5-hydroxy-4-methyl-6,7-dihydro-5H-cyclopenta[b]pyridin-3-yl)isoquinolin-3-yl)carbamate] | 1.7
28 | Cc1c(-c2cc3cc(NC(=O)O[C@H]4C[C@@H](N5CCOCC5)C4)ncc3c(N)c2F)cnc2c1NCCO2 [Compound 550b, (1s,3s)-3-Morpholinocyclobutyl (8-amino-7-fluoro-6-(8-methyl-2,3-dihydro-1H-pyrido[2,3-b][1,4]oxazin-7-yl)isoquinolin-3-yl)carbamate] | 0.054
